This is an account of results in the supplement of paper PMC12076712.

Some targets named below: UniProt P27448; UniProt P28482; UniProt Q05655.
What all share (test): pIC50, kinobeads binding competition
Common to all, as to conditions: cell material: Jurkat lysate

In another experiment the target is T1, ICK (UniProt Q9UPZ9).
T1 sequence (whole entry): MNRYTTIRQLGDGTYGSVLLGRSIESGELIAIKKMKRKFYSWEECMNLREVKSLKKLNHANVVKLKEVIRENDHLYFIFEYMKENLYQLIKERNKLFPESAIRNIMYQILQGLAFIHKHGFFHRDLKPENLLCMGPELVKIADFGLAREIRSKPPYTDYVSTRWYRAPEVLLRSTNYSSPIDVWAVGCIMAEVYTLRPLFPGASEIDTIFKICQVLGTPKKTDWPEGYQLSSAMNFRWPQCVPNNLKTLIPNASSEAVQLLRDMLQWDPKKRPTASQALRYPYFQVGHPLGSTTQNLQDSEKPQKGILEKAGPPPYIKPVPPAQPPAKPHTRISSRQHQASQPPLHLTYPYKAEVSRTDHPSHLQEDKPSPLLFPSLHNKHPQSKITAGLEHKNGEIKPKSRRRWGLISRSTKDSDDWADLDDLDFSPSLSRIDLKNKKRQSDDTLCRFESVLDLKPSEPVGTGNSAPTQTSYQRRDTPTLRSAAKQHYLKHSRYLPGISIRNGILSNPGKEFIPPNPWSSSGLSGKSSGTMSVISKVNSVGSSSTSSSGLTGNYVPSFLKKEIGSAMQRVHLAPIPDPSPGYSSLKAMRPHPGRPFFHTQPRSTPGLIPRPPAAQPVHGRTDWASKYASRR

In the next experiment the target is T2, PRKG2 (UniProt Q13237).
T2 sequence (whole entry): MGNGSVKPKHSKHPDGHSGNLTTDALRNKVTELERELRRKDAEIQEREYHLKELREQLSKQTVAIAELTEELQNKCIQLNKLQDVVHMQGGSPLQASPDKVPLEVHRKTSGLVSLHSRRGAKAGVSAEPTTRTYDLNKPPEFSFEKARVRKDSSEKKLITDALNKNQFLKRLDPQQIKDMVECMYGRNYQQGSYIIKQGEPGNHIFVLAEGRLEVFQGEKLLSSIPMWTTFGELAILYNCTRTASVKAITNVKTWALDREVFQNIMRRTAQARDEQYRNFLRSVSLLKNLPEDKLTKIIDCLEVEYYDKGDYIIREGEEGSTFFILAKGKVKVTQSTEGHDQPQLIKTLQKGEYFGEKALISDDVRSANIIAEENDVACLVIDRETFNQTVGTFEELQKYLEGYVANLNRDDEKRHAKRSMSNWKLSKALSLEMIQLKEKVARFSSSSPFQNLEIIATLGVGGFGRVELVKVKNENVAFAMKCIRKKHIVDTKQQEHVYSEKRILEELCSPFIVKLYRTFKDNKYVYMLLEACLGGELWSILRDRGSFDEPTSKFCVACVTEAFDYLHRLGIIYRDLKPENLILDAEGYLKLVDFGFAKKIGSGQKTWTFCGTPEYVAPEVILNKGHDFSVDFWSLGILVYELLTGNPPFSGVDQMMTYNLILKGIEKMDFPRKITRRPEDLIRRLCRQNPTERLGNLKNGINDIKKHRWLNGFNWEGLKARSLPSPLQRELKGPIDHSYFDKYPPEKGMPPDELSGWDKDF

The target of a further experiment is T3, UniProt Q13163.
T3 sequence (whole entry): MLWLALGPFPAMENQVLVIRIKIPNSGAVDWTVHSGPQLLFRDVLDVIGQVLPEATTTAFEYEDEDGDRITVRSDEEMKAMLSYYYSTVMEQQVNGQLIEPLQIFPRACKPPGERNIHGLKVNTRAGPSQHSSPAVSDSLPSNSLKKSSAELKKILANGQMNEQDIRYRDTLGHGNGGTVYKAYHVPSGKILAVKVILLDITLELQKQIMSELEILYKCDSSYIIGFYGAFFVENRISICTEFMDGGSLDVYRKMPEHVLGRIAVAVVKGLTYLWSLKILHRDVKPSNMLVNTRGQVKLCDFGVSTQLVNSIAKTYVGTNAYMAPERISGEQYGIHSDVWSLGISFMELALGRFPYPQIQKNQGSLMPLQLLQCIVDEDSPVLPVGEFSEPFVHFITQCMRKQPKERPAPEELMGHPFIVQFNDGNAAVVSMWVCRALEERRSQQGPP

The target in a further experiment is T4, UniProt Q9UEE5.
T4 sequence (whole entry): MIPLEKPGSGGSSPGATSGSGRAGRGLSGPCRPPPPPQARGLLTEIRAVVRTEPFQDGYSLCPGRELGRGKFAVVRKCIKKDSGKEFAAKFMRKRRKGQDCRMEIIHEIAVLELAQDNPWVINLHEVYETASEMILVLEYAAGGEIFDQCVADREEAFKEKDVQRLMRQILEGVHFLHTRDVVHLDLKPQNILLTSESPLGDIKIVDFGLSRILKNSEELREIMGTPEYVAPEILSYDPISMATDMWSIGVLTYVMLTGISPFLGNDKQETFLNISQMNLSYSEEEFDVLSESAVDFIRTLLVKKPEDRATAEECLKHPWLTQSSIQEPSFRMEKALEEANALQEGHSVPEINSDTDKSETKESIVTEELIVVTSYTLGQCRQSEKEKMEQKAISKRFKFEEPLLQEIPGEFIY

The next experiment addresses T5, ZAP70 (UniProt P43403).
T5 sequence (whole entry): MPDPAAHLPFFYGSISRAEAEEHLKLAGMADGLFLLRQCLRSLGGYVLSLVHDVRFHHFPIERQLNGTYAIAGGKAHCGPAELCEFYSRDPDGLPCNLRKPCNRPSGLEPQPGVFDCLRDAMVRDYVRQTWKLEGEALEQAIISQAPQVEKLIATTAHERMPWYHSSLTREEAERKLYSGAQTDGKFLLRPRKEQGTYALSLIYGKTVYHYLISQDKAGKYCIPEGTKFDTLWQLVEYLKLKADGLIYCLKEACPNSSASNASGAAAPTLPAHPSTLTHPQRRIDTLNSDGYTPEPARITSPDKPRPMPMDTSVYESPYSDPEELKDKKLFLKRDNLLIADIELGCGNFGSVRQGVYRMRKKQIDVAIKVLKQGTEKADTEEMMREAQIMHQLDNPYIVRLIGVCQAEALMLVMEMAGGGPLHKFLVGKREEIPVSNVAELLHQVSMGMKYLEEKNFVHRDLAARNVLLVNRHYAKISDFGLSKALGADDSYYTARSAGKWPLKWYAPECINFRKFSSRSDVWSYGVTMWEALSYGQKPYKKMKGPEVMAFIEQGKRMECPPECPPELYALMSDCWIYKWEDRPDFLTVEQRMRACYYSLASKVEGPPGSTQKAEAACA

UniProt Q05655, sequence (Q05655 whole entry, looked up): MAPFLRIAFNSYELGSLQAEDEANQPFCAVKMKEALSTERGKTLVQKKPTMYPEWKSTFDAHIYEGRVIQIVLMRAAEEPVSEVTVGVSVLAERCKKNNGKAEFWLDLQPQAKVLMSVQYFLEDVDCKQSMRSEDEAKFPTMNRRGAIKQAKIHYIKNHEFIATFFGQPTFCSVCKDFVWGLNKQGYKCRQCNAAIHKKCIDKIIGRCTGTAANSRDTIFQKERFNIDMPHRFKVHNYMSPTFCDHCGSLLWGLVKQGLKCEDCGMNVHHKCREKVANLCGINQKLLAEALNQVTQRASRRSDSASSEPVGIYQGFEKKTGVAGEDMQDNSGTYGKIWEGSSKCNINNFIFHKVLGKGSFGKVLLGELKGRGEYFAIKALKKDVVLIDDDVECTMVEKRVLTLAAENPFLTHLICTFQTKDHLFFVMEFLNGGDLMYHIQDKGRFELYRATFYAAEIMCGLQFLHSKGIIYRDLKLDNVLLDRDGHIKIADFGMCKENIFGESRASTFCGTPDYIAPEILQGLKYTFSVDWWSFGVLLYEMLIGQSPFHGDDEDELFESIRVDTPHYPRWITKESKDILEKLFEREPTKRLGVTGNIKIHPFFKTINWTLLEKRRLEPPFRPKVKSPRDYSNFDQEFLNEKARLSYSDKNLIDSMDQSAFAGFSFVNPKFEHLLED
UniProt P27448, sequence (P27448 whole entry, looked up): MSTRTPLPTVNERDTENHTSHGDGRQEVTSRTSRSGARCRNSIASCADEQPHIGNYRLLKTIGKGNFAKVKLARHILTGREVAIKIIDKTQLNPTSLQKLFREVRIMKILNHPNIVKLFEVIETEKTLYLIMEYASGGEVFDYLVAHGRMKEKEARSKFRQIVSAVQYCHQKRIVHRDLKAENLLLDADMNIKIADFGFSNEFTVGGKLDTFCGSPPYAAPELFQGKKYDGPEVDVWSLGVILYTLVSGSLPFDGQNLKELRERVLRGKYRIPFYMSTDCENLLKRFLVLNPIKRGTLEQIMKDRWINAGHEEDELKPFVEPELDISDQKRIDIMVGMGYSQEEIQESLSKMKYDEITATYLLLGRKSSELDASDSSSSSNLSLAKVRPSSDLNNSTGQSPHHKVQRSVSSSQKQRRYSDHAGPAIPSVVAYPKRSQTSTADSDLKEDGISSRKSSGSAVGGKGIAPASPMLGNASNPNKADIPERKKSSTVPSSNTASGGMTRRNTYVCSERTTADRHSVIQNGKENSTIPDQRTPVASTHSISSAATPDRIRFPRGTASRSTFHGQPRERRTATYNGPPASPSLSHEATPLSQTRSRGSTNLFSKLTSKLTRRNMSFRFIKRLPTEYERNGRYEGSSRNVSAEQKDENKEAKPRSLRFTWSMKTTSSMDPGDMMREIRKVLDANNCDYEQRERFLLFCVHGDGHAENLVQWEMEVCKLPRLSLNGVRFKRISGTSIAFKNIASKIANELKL
UniProt P28482, sequence (P28482 whole entry): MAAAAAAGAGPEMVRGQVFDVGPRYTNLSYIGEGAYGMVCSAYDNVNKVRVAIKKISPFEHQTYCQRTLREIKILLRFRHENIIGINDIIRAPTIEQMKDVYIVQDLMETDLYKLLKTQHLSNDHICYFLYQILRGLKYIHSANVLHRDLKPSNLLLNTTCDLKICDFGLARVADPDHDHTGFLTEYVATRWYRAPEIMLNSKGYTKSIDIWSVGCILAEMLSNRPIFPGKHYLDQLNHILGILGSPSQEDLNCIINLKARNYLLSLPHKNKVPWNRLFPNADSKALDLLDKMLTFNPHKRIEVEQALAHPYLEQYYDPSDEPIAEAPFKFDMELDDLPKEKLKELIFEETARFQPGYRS

As a reminder, the pIC50 is the negative decadic logarithm of the IC50, by convention in mol/L. The low end stands for a large IC50, the high end for a small IC50. On to `CCc1cnn2c(NCc3ccc[n+]([O-])c3)cc(N3CCCC[C@H]3CCO)nc12` [dinaciclib], for which the pIC50 is 6.39 on ICK; less than 4.52 on PRKG2; less than 4.52 at UniProt P27448; less than 4.52 on UniProt P28482; less than 4.52 at UniProt Q05655; less than 4.52 at UniProt Q13163. The pIC50 at UniProt Q9UEE5 and at ZAP70 was less than 4.52 each time.
